Experimental data as given in US20060035961A1, “Cyclopentane heptan(ENE)OIC acid, 2-heteroarylalkenyl derivatives as therapeutic agents” (ALLERGAN, INC., priority 2004, published 2006).

Tests used:
Format in all cases: cell-based
[1] = target: T1, hFP (Homo sapiens, UniProt P43088); experiment: FLIPR calcium signal study, hFP; conditions: HEK-293(EBNA) cells expressing recombinant human receptor, read-out: HFP functional data
T1 construct: expressed in transfected cells; host or cells: HEK-293(EBNA)
Experimental: (§1) Methods for FLIPR™ Studies (a) Cell Culture
(§2) HEK-293(EBNA) cells, stably expressing one type or subtype of recombinant human prostaglandin receptors (prostaglandin receptors expressed: hDP/Gqs5; hEP1; hEP2/Gqs5; hEP3A/Gqi5; hEP4/Gqs5; hFP; hIP; hTP), were cultured in 100 mm culture dishes in high-glucose DMEM medium containing 10% fetal bovine serum, 2 mM 1-glutamine, 250 μg/ml geneticin (G418) and 200 μg/ml hygromycin B as selection markers, and 100 units/ml penicillin G, 100 μg/ml streptomycin and 0.25 μg/ml amphotericin B.
(§3) (b) Calcium Signal Studies on the FLIPR™
(§4) Cells were seeded at a density of 5×10^4 cells per well in Biocoat® Poly-D-lysine-coated black-wall, clear-bottom 96-well plates (Becton-Dickinson) and allowed to attach overnight in an incubator at 37° C. Cells were then washed two times with HBSS-HEPES buffer (Hanks Balanced Salt Solution without bicarbonate and phenol red, 20 mM HEPES, pH 7.4) using a Denley Cellwash plate washer (Labsystems). After 45 minutes of dye-loading in the dark, using the calcium-sensitive dye Fluo-4 AM at a final concentration of 2 μM, plates were washed four times with HBSS-HEPES buffer to remove excess dye leaving 100 μl in each well. Plates were re-equilibrated to 37° C. for a few minutes.
(§5) Cells were excited with an Argon laser at 488 nm, and emission was measured through a 510-570 nm bandwidth emission filter (FLIPR™, Molecular Devices, Sunnyvale, Calif.). Drug solution was added in a 50 μl volume to each well to give the desired final concentration. The peak increase in fluorescence intensity was recorded for each well. On each plate, four wells each served as negative (HBSS-HEPES buffer) and positive controls (standard agonists: BW245C (hDP); PGE2 (hEP1; hEP2/Gqs5; hEP3A/Gqi5; hEP4/Gqs5); PGF2, (hFP); carbacyclin (hIP); U-46619 (hTP), depending on receptor). The peak fluorescence change in each drug-containing well was then expressed relative to the controls.
(§6) Compounds were tested in a high-throughput (HTS) or concentration-response (CoRe) format. In the HTS format, forty-four compounds per plate were examined in duplicates at a concentration of 10^−5 M. To generate concentration-response curves, four compounds per plate were tested in duplicates in a concentration range between 10^−5 and 10^−11 M. The duplicate values were averaged. In either, HTS or CoRe format each compound was tested on at least 3 separate plates using cells from different passages to give an n≧3.

[2] = target: T2, hTP (Homo sapiens, UniProt P21731); experiment: FLIPR calcium signal study, hTP; conditions: HEK-293(EBNA) cells expressing recombinant human receptor, read-out: HTP functional data
T2 construct: expressed in transfected cells; host or cells: HEK-293(EBNA)
T2 sequence (P21731 1-343): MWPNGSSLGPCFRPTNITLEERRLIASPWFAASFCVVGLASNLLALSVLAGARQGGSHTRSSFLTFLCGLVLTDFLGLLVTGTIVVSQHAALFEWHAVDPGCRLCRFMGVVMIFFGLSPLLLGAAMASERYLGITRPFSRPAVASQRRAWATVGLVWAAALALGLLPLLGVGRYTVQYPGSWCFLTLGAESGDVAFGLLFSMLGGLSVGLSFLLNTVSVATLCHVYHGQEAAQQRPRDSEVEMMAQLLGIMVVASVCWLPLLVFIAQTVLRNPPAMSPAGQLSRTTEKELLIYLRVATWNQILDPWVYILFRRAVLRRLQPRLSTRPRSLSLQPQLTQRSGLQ
Experimental: as §1, §2, §3, §4, §5, §6

[3] = target: T3, hEP4/Gqs5 (Homo sapiens, UniProt P35408); experiment: FLIPR calcium signal study, hEP4/Gqs5; conditions: HEK-293(EBNA) cells expressing recombinant human receptor, read-out: HEP4 functional data
T3 construct: expressed in transfected cells; host or cells: HEK-293(EBNA)
Experimental: as §1, §2, §3, §4, §5, §6

[4] = target: T4, hIP (Homo sapiens, UniProt P43119); experiment: FLIPR calcium signal study, hIP; conditions: HEK-293(EBNA) cells expressing recombinant human receptor, read-out: HIP functional data
T4 construct: expressed in transfected cells; host or cells: HEK-293(EBNA)
Experimental: as §1, §2, §3, §4, §5
Compounds were tested in a high-throughput (HTS) or concentration-response (CoRe) format. […]

[5] = target: T5, hEP3A/Gqi5 (Homo sapiens, UniProt P43115); experiment: FLIPR calcium signal study, hEP3A/Gqi5; conditions: HEK-293(EBNA) cells expressing recombinant human receptor, read-out: HEP3A functional data
T5 construct: expressed in transfected cells; host or cells: HEK-293(EBNA)
T5 sequence (P43115 1-390): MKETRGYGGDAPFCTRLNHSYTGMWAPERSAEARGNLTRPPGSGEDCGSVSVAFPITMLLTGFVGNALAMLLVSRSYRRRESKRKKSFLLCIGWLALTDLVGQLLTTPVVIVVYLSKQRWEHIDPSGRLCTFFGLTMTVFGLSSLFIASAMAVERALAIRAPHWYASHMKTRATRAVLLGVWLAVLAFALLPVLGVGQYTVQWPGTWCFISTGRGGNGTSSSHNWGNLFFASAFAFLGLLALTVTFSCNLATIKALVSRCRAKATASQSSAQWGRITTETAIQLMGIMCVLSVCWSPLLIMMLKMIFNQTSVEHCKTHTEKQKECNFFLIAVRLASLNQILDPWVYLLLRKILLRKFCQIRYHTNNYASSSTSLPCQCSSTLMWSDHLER
Experimental: as §1, §2, §3
Cells were seeded at a density of 5×10^4 cells per well in Biocoat® Poly-D-lysine-coated black-wall, clear-bottom 96-well plates (Becton-Dickinson) and allowed to attach overnight in an incubator at 37° C. Cells were then washed two times with HBSS-HEPES buffer (Hanks Balanced Salt Solution without bicarbonate and phenol red, 20 mM HEPES, pH 7.4) using a Denley Cellwash plate washer (Labsystems). […]
Cells were excited with an Argon laser at 488 nm, and emission was measured through a 510-570 nm bandwidth emission filter (FLIPR™, Molecular Devices, Sunnyvale, Calif.). […] The peak increase in fluorescence intensity was recorded for each well. […] The peak fluorescence change in each drug-containing well was then expressed relative to the controls. […]

T3 sequence (P35408 whole entry): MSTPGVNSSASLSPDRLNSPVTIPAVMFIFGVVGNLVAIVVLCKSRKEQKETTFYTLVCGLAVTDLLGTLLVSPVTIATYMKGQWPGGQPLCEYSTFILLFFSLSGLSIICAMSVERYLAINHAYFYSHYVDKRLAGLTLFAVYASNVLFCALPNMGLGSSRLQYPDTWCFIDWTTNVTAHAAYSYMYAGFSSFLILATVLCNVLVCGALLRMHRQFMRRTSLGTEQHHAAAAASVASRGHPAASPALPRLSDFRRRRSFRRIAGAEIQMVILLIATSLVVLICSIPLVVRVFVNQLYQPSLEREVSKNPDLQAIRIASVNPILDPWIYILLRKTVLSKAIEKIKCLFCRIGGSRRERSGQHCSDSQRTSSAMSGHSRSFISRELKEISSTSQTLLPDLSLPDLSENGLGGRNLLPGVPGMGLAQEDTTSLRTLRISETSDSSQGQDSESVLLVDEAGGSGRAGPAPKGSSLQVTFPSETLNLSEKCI
T1 sequence (P43088 whole entry): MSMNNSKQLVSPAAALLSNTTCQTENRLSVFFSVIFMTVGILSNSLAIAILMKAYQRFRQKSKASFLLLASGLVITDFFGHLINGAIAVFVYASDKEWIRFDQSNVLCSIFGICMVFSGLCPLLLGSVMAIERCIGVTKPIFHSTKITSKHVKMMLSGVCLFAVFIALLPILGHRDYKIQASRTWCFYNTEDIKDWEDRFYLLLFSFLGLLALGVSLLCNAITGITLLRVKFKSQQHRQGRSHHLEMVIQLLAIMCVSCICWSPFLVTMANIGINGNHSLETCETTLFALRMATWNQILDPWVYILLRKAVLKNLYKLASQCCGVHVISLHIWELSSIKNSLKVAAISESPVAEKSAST
T4 sequence (P43119 whole entry): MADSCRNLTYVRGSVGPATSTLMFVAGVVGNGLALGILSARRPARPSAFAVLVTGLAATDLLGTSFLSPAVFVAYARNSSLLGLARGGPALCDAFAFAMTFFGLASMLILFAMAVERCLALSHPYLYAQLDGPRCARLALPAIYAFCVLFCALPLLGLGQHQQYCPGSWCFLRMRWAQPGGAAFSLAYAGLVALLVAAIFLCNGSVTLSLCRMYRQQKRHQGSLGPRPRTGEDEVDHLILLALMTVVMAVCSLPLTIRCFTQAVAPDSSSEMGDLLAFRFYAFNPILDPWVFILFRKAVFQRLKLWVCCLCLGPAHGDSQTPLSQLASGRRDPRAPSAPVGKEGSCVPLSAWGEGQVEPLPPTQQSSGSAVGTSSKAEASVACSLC

EC50 [1] | EC50 [2] | EC50 [3] | EC50 [4] | EC50 [5] | Structure (SMILES)
> 10 µM | > 10 µM |  |  |  | Cc1sc(CC[C@H](O)/C=C/[C@H]2CCC(O)[C@@H]2C/C=C\CCCC(=O)NCCO)cc1Br (stereo partly drawn) [Compound 22H, (Z)-7-{(1R,2R)-2-[(E)-(S)-5-(4-Bromo-5-methyl-thiophen-2-yl)-3-hydroxy-pent-1-enyl]-5-hydroxy-cyclopentyl}-hept-5-enoic acid (2-hydroxy-ethyl)-amide]
> 10 µM |  |  |  |  | Cc1sc(CC[C@H](O)/C=C/[C@H]2C(C)CC(O)[C@@H]2C/C=C\CCCC(N)=O)cc1Br (stereo partly drawn) [Compound 17L, (Z)-7-{(1R,2R)-2-[(E)-(S)-5-(4-Bromo-5-methyl-thiophen-2-yl)-3-hydroxy-pent-1-enyl]-5-hydroxy-3-methyl-cyclopentyl}-hept-5-enoic acid amide]
≥ 10 µM | 1.38 µM |  |  |  | Cc1sc(CC[C@H](O)/C=C/[C@H]2C(C)CC(O)[C@@H]2C/C=C\CCCC(=O)NCCO)cc1Br (stereo partly drawn) [Compound 16H, (Z)-7-{(1R,2R)-2-[(E)-(S)-5-(4-Bromo-5-methyl-thiophen-2-yl)-3-hydroxy-pent-1-enyl]-5-hydroxy-3-methyl-cyclopentyl}-hept-5-enoic acid (2-hydroxy-ethyl)-amide]
≥ 10 µM | 1.95 µM | > 10 µM |  |  | Cc1sc(CC[C@H](O)/C=C/[C@H]2C(C)CC(O)[C@@H]2C/C=C\CCCC(N)=O)cc1Br (stereo partly drawn) [Compound 17H, (Z)-7-{(1R,2R)-2-[(E)-(S)-5-(4-Bromo-5-methyl-thiophen-2-yl)-3-hydroxy-pent-1-enyl]-5-hydroxy-3-methyl-cyclopentyl}-hept-5-enoic acid amide]
 |  | > 10 µM |  |  | CCNC(=O)CCC/C=C\C[C@H]1C(O)CC(C)[C@@H]1/C=C/[C@@H](O)CCc1cc(Br)c(C)s1 (stereo partly drawn) [Compound 15L, (Z)-7-{(1R,2R)-2-[(E)-(S)-5-(4-Bromo-5-methyl-thiophen-2-yl)-3-hydroxy-pent-1-enyl]-5-hydroxy-3-methyl-cyclopentyl}-hept-5-enoic acid ethylamide]
> 10 µM | > 10 µM |  |  |  | CCNC(=O)CCC/C=C\C[C@H]1C(O)CC[C@@H]1/C=C/[C@@H](O)CCc1cc(Br)c(C)s1 (stereo partly drawn) [Compound 21H, (Z)-7-{(1R,2R)-2-[(E)-(S)-5-(4-Bromo-5-methyl-thiophen-2-yl)-3-hydroxy-pent-1-enyl]-5-hydroxy-cyclopentyl}-hept-5-enoic acid ethylamide]
> 10 µM | > 10 µM | > 10 µM |  |  | CCNC(=O)CCC/C=C\C[C@H]1C(O)CC(C)[C@@H]1/C=C/[C@@H](O)CCc1cc(Br)c(C)s1 (stereo partly drawn) [Compound 15H, (Z)-7-{(1R,2R)-2-[(E)-(S)-5-(4-Bromo-5-methyl-thiophen-2-yl)-3-hydroxy-pent-1-enyl]-5-hydroxy-3-methyl-cyclopentyl}-hept-5-enoic acid ethylamide]
> 10 µM | > 10 µM | > 10 µM | > 10 µM |  | C=CC1CC(O)[C@H](C/C=C\CCCC(=O)NCCO)[C@H]1/C=C/[C@@H](O)CCc1cc(Br)c(C)s1 (stereo partly drawn) [Compound 12H, (Z)-7-{(1R,2S)-2-[(E)-(S)-5-(4-Bromo-5-methyl-thiophen-2-yl)-3-hydroxy-pent-1-enyl]-5-hydroxy-3-vinyl-cyclopentyl}-hept-5-enoic acid (2-hydroxy-ethyl)-amide]
> 10 µM | 2.13 µM |  |  |  | Cc1sc(CC[C@H](O)/C=C/[C@H]2CCC(O)[C@@H]2C/C=C\CCCC(N)=O)cc1Br (stereo partly drawn) [Compound 23H, (Z)-7-{(1R,2R)-2-[(E)-(S)-5-(4-Bromo-5-methyl-thiophen-2-yl)-3-hydroxy-pent-1-enyl]-5-hydroxy-cyclopentyl}-hept-5-enoic acid amide]
2.14 µM |  |  |  |  | CCNC(=O)CCC/C=C\C[C@@H]1[C@@H](/C=C/[C@@H](O)CCc2cc(Br)c(C)s2)[C@H](O)C[C@@H]1O [Control, reference compound]
0.584 µM | 2.52 µM |  | > 10 µM | 7.08 µM | C=CC1CC(O)[C@H](C/C=C\CCCC(N)=O)[C@H]1/C=C/[C@@H](O)CCc1cc(Br)c(C)s1 (stereo partly drawn) [Compound 13H, (Z)-7-{(1R,2S)-2-[(E)-(S)-5-(4-Bromo-5-methyl-thiophen-2-yl)-3-hydroxy-pent-1-enyl]-5-hydroxy-3-vinyl-cyclopentyl}-hept-5-enoic acid amide]
 |  | > 10 µM |  |  | C=CC1CC(O)[C@H](C/C=C\CCCC(N)=O)[C@H]1/C=C/[C@@H](O)CCc1cc(Br)c(C)s1 (stereo partly drawn) [Compound 13L, (Z)-7-{(1R,2S)-2-[(E)-(S)-5-(4-Bromo-5-methyl-thiophen-2-yl)-3-hydroxy-pent-1-enyl]-5-hydroxy-3-vinyl-cyclopentyl}-hept-5-enoic acid amide]
 |  | > 10 µM |  |  | Cc1sc(CC[C@H](O)/C=C/[C@H]2C(C)CC(O)[C@@H]2C/C=C\CCCC(=O)NCCO)cc1Br (stereo partly drawn) [Compound 16L, (Z)-7-{(1R,2R)-2-[(E)-(S)-5-(4-Bromo-5-methyl-thiophen-2-yl)-3-hydroxy-pent-1-enyl]-5-hydroxy-3-methyl-cyclopentyl}-hept-5-enoic acid (2-hydroxy-ethyl)-amide]
> 10 µM | > 10 µM |  | > 10 µM |  | C=CC1CC(O)[C@H](C/C=C\CCCC(=O)NCCO)[C@H]1/C=C/[C@@H](O)CCc1cc(Br)c(C)s1 (stereo partly drawn) [Compound 12L, (Z)-7-{(1R,2S)-2-[(E)-(S)-5-(4-Bromo-5-methyl-thiophen-2-yl)-3-hydroxy-pent-1-enyl]-5-hydroxy-3-vinyl-cyclopentyl}-hept-5-enoic acid (2-hydroxy-ethyl)-amide]
> 10 µM |  |  |  |  | C=CC1CC(O)[C@H](C/C=C\CCCC(=O)NCC)[C@H]1/C=C/[C@@H](O)CCc1cc(Br)c(C)s1 (stereo partly drawn) [Compound 14H, (Z)-7-{(1R,2S)-2-[(E)-(S)-5-(4-Bromo-5-methyl-thiophen-2-yl)-3-hydroxy-pent-1-enyl]-5-hydroxy-3-vinyl-cyclopentyl}-hept-5-enoic acid ethylamide]
5.42 µM | > 10 µM |  |  | > 10 µM | CCC1CC(O)[C@H](C/C=C\CCCC(N)=O)[C@H]1/C=C/[C@@H](O)CCc1cc(Br)c(C)s1 (stereo partly drawn) [Compound 20H, (Z)-7-{(1R,2R)-2-[(E)-(S)-5-(4-Bromo-5-methyl-thiophen-2-yl)-3-hydroxy-pent-1-enyl]-3-ethyl-5-hydroxy-cyclopentyl}-hept-5-enoic acid amide]
